Source: patent US5703069A, “Method for inhibiting and controlling viral growth” (Warner-Lambert Company, priority 1996, dated 1997)
pIC50: −log10 of the molar value. Read-outs that look alike come from different tables or passages of the source.

How the values were obtained:
OM-10.1 cells [1] = settings: NCDDG/AIDS poster, San Diego, Nov. 3-7 (1991); cited from earlier work
OM-10.1 cells [2] = assay: inhibition of HIV-1 activation / HIV expression in chronically infected OM-10.1 cells (TNF-α induced); assay type: cell-based, human immunodeficiency virus type 1 (HIV-1); settings: Human immunodeficiency virus 1
Excerpt: The cellular pathways involved in mediating the activating signal from the plasma membrane to the integrated virus, resulting in HIV-1 expression, are much less clear. Recently, the development of a reliable and simple system for evaluating compounds that could prevent activation of latent HIV was reported at a National Cooperative Discovery Grant (NCDDG)/AIDS meeting by P. Feorino, S. T. Butera, T. M. Folks, and R. F. Schinazi, Nov. 3-7, 1991. The assay system employed the OM-10.1 cell line, a unique chronically-infected promyelocytic clone which remains CD4+ until HIV-1 activation with tumor necrosis factor-α. The expression of CD4+ on the cell surface and the activity of reverse transcriptase are used as markers for quantitating viral expression. Alternatively, other HIV markers, such as protease activity, which are known to those of skill in the art can be used. OM-10.1 cells remain CD4+ until viral activation and respond to tumor necrosis factor induction, and therefore, these cultures are used to conveniently and rapidly examine pharmacologics for an ability to prevent CD4+ down modulation (decrease in expression of CD4+ on the cell surface) and HIV-1 expression.
A variety of compounds known to have antiviral properties against either acutely or chronically infected cells were evaluated for their ability to inhibit HIV expression in these OM-10.1 cells. […]

Vero cells = settings: monkey, 120 h
Experimental: This screen was designed to identify compounds which inhibit HSV-1 in phases of its life cycle from adsorption and penetration through late gene expression. The primary screen, AVUS1, involves adding single compounds to a monolayer of Vero cells to a final concentration of 25 μg/mL, then infecting the cells with a recombinant HSV-1, Us3::Tn5-lacZ. This virus contains an insertion of a lacZ gene driven by a viral late promoter in the US3 protein kinase gene of HSV-1. The infection is allowed to proceed for 20 hours, then the cells are lysed with a solution of Triton X-100 and CPRG in "Z" buffer and assayed for β-galactosidase activity. The positive control used is solvent alone without compound, which corresponds to 0% inhibition, and the negative control used is either no virus added to the wells or 0.5% Triton X-100 added to the wells, which corresponds to 100% inhibition. Percent inhibition of a compound is then calculated using these positive and negative controls. […] In AVUS3, the test compound is dissolved in MeOH at 20 mM. A titration of the compound is then assayed in both the same β-galactosidase virus replication inhibition assay and a 5-day XTT toxicity assay. […]

wild type HSV-1 = assay: PRA (plaque reduction assay with wild type HSV-1); assay type: cell-based; settings: read-out: IC50 Inhibitory Activity (PRA)
herpesvirus = assay: SGC anti-herpesvirus assay; assay type: cell-based; settings: read-out: IC50 Inhibitory Activity (SGC)
[3] = system: TPA-mediated CD4 down regulation and HIV expression; settings: Hamamoto et al. 1989; cited from earlier work

SMILES: Cc1cn([C@H]2C[C@H](F)[C@@H](CO)O2)c(=O)[nH]c1=O [3'-fluoro-3'-deoxythymidine (FLT), 3'-fluoro-3'-deoxythymidine]
- inhibition of the activation of HIV-1 (in words) (OM-10.1 cells [1]): modest inhibitors of the activation of HIV-1

SMILES: CC(=O)N(O)CCCCCNC(=O)CCC(=O)N(O)CCCCCNC(=O)CCC(=O)N(O)CCCCCN [desferrioxamine]
- inhibition of the activation of HIV-1 (in words) (OM-10.1 cells [1]): modest inhibitors of the activation of HIV-1

SMILES: COc1ccc2sc3c(c2c1)SCCNC3=O [2,3-Dihydro-9-methoxy[1]benzothieno[2,3-f]-1,4-thiazepin-5(4H)-one]
- pIC50 (OM-10.1 cells [2]): 6.68
- CC50 (Vero cells): 60000 nM
- pIC50 (wild type HSV-1; Human alphaherpesvirus 1, PRA): 6.35
- pIC50 (wild type HSV-1; PRA): 6.26
- pIC50 (herpesvirus): 6.46

SMILES: CCCCCCCCCCCCCC(=O)O[C@@H]1[C@@H](C)[C@@]2(O)[C@@H](C=C(CO)C[C@]3(O)C(=O)C(C)=C[C@@H]23)[C@@H]2C(C)(C)[C@]12OC(C)=O [12-O-tetradecanoylphorbol-13-acetate]
- effect on CD4 and viral expression in HIV-infected cells (in words) [3]: mediates CD4 down regulation and viral expression in HIV-infected cells
